Measured values published in patent US5677326A, “Indoline compound and 5-HT3 receptor antagonist containing the same as active ingredient” (Tokyo Tanabe Company Limited, priority 1993, dated 1997).
Where a name gives a salt, the structure may show the parent alone. Read-outs that look alike come from different tables or passages of the source. One block for each molecule: values may come before it.

Assays:
[1] = molecular target: T1, Intestinal 5-HT3 receptor (Cavia porcellus, UniProt O70212); experiment: Intestinal 5-HT3 receptor antagonism (isolated distal colon, 2-methylserotonin-induced contraction); type: cell-based, Hartley guinea pigs; conditions: for Kb: isolated distal colon, 2-methylserotonin contraction
T1 sequence (O70212 24-490 limits assumed): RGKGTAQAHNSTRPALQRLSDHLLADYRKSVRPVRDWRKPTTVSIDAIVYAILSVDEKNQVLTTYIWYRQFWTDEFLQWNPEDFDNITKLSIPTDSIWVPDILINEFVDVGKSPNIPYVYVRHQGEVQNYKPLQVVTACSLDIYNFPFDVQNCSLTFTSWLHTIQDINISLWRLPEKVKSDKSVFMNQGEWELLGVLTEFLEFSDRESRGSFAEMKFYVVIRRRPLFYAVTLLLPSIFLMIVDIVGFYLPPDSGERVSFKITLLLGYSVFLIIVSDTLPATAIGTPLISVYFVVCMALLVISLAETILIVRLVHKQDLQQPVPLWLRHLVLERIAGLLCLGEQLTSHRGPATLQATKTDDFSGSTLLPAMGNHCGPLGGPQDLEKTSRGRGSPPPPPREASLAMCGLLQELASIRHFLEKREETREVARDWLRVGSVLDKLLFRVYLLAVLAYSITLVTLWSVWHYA
Experimental: The test was conducted following the method of Miyata, et al. (The Journal of Pharmacology and Experimental Therapeutics Vol.259, No:1, 15 (1991)).
Male Hartley guinea pigs with a body weight of 300-400 g were bled to death, the distal colon (3-10 cm from the anus) was isolated and suspended in a Magnus tube filled with Krebs solution aerated with a mixed gas (95% O2, 5% CO2), and subjected to a tensile load of 1 g. After constant contraction by cumulative addition of 2-methylserotonin (10^-6 -10^-4 M) was obtained, the test agent was added and the pA2 value of the test agent was calculated based on its inhibiting action on the initial value.
The value (pA2 value) is defined as the negative logarithm (-logM) of the molar concentration (M) of the antagonist required to reduce the effect of serotonin at a concentration of 2 times the 2-methylserotonin concentration (EC50) necessary to induce half of the maximum contraction reaction, to an effect induced by an EC50 of serotonin.

[2] = molecular target: T2, 5-HT3 receptors in the heart (Rattus norvegicus, UniProt P35563); experiment: Antagonism against Von Bezold-Jarisch reflex (BJ reflex); type: in vivo, SD rats; conditions: 5 min before serotonin 30 μg/kg, read-out: ID50 (the source's name)
T2 construct: from tissue; host or cells: living anesthetized male SD rats (in vivo)
T2 sequence (P35563 24-483): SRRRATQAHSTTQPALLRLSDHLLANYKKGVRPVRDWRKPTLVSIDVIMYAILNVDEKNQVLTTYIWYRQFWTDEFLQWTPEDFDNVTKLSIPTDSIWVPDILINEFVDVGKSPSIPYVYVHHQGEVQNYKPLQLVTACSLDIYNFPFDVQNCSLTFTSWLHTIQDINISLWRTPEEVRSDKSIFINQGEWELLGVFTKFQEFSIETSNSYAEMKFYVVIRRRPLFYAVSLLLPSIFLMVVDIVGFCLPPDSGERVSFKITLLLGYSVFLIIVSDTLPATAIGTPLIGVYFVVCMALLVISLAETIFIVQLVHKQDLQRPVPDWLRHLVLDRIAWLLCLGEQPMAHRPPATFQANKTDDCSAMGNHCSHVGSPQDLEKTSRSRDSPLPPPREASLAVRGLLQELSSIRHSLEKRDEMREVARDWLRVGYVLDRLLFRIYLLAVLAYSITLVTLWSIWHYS
Experimental: Antagonism against Von Bezold-Jarisch reflex (BJ reflex):
The pulse was determined by measuring the electrocardiogram R waves (secondary induction) with an instantaneous pulse rate meter.

[3] = Acute toxicity (oral); type: in vivo; conditions: rats; for LD50: rat, in vivo; for cases of death: 1000 mg/kg
[4] = system: restrained stress-induced diarrhea; experiment: Inhibiting effect on restrained stress-induced diarrhea (oral administration); type: in vivo, Wistar rats; conditions: 1 hour before stress
Experimental: Inhibiting effect on restrained stress-induced diarrhea (oral administration): This test was conducted following the method of Miyata, et al. […] Nine-week-old male Wistar rats fasted overnight were placed in a stress cage and their feces produced in 5 hours were observed. Of 15 rats, 14 developed diarrhea. The inhibiting effect on diarrhea was measured by oral administration of the test compounds one hour prior to placement in the stress cage.

[5] = system: gastric emptying; experiment: Accelerating effect on gastric emptying (cisplatin-reduced); type: in vivo, SD rats; conditions: for Gastric evacuation: oral, 30 min before cisplatin 10 mg/kg
Experimental: Accelerating effect on gastric emptying
Seven-week-old male SD rats which had been fasted for 24 hours were used. The effect on gastric emptying was studied in rats with reduced gastric emptying due to cisplatin. The rats were intragastrically administered the test feed (1.5% aqueous CMC solution containing 50 mg/100 ml phenol red) at 1.5 ml/rat, and after 15 minutes the stomachs were dissected, the residual amount of phenol red in the stomach was measured, in order to determine the gastric emptying in normal animals. A cisplatin-induced reduction in gastric emptying was measured by intraabdominal administration of cisplatin (10 mg/kg) 30 minutes prior to supplying the test feed. The test compound was also administered orally 30 minutes prior to the cisplatin administration to study the accelerating effect of the test compound on gastric emptying.

[6] = system: duodenal extension reflex; experiment: Inhibiting effect on duodenal extension reflex; type: in vivo, Wistar rats; conditions: for Inhibition rate, 5-min value / Inhibition rate, 15-min value / Inhibition rate, 25-min value: intravenous
Description: Inhibiting effect on duodenal extension reflex: Unfasted male Wistar rats with a body weight of 300-390 g were opened at the abdomen under urethane anesthesia, and ligated at 2 locations, the gastric pyloric region and 3-4 cm directly under it, to create a duodenal loop. […] The beaker was raised at once to create a internal loop pressure of 75 cm H2, and the depressor reflex and effect of the test agent administration were observed. […] The test agent was then administrated intravenously, and at 5, 15 and 25 minutes after administration an extension stimulus was applied, the depressor reflex was observed, and the differences were expressed as percentages with respect to the initial value, to give the inhibition rates.

[7] = system: 5-HT3 receptors in the upper intestine; experiment: Antagonism against 5-HT-induced intestinal secretion (jejunal loop); type: in vivo, wister rats; conditions: for net fluid transfer in jejunal loop: caudal vein, 15 min before serotonin
Experimental: Antagonism against 5-HT-induced intestinal secretion:
Male wister rats (8-11 weeks old) were anesthetized with urethane, and the abdomen was opened a polyethylene catheter was placed in the jejunum 5 cm distal to the duodenojejunal flexure and fixed by ligation. The second ligation was made at a distal point of 20 cm to create a jejunal loop. Two ml of physiological saline was injected into this loop and initiated continuous injection of physiological saline (0.1 ml/min) or 5-HT (3 μg/0.1 ml/kg/min, serotonin treated group) into the mesenteric artery through the mesenteric artery gastric branch, and after 30 minutes the jejunal loop was isolated, the residual fluid amount was measured, and the net fluid transfer per gram of tissue weight was calculated. The net fluid transfer was expressed as the fluid amount (weight) change in 30 minutes per jejunal tissue weight (g/30 min/g). A "+" was assigned when the fluid amount increased compared with 2 ml of physiological saline injected into the loop, and "-" when it decreased

[8] = system: cisplatin-induced vomiting; experiment: Inhibiting effect on cisplatin-induced vomiting; type: in vivo, ferrets; conditions: oral, 1 hour before cisplatin; for No. of retching / No. of vomiting animals/No. of animals used / No. of vomitings: 6 hours
Description: Inhibiting effect on cisplatin-induced vomiting:
Vomiting was induced in ferrets by administration of cisplatin. The inhibiting effect on this vomiting was observed. […] The test agents were orally administered one hour prior to cisplatin administration. […]

[9] = system: restraint stress-induced diarrhea; experiment: Inhibiting effect on restraint stress-induced diarrhea (intraabdominal administration); type: in vivo, Wistar rats; conditions: 30 μg/kg, 30 min before stress
Experimental: Inhibiting effect on restraint stress-induced diarrhea (intraabdominal administration): This test was conducted in the same manner as Test 3. Nine- to ten-week-oldmale Wistar rats fasted overnight were placed in a stress case and their feces produced in 5 hours were observed. Of 15 rats, 14 developed diarrhea. The inhibiting effect on diarrhea was measured by intraabdominal administration of a test compound 30 minutes prior to placement in the stress cage.

[10] = system: stress-related diarrhea; conditions: animal models; J. Pharmacol. Exp. Ther. 261, 297 (1992); cited from earlier work
[11] = read-out: M (molar concentration of antagonist)

Structure (SMILES): Cl.O=C(C1CCc2nc[nH]c2C1)N1CC(c2cccc(O)c2)c2ccccc21 (stereo not drawn) [Compound 6, 5-[(3-(3-hydroxyphenyl)indolin-1-yl)carbonyl]-4,5,6,7-tetrahydrobenzimidazole hydrochloride]
Kb ([1]; read-out: pA2 (converted)): 0.1 nM
ED50 ([2]; iv): 0.00015 mg/kg
LD50 [3]: ≥ 1000 mg/kg
cases of death [3]: no cases of death
Inhibition rate ([4]; 100 μg/kg): 100%
No. of animals with diarrhea/No. of animals used ([4]; 100 μg/kg): 0/5

Kb ([1]; read-out: pA2 (converted)): 3.98 nM
ED50 ([2]; intravenous): 0.00015 mg/kg
Structure (SMILES): O=C([C@@H]1CCc2[nH]cnc2C1)N1CCc2ccccc21 [YM-114, reference compound]
Inhibition rate ([4]; 30 μg/kg): 30%
No. of animals with diarrhea/No. of animals used ([4]; 30 μg/kg): 7/10

Structure (SMILES): Cl.O=C(C1CCc2nc[nH]c2C1)N1CC(c2ccccc2)c2ccccc21 (stereo not drawn) [Compound 4, 5-[(3-phenylindolin-1-yl)carbonyl]-4,5,6,7-tetrahydrobenzimidazole hydrochloride]
activity in the colon compared to YM-060 and YM-114 ([1]; colon, relative to YM-060 and YM-114): about 15 -fold
Kb [1, 11]: 0.3 nM
Kb ([1]; read-out: pA2 (converted)): 0.251 nM
inhibition of cisplatin-induced gastric emptying reduction (in words) ([5]; 0.3 μg/kg): inhibited similar cisplatin-induced gastric emptying reduction
Gastric evacuation ([5]; 0.3 μg/kg): 73.3%
amount needed relative to YM-060 for similar inhibition of gastric emptying reduction ([5]; 0.3 μg/kg, relative to the amount of YM-060): less than 1/3
gastric emptying acceleration (in words) ([5]; 1.0 μg/kg): gastric emptying was further accelerated
Gastric evacuation ([5]; 1.0 μg/kg): 82.4%
ED50 ([2]; iv): 0.00039 µmol/kg
Inhibition rate, 5-min value ([6]; 1 μg/kg): 21.7%
Inhibition rate, 15-min value ([6]; 1 μg/kg): 6.7%
Inhibition rate, 25-min value ([6]; 1 μg/kg): 20.2%
Inhibition rate, 5-min value ([6]; 10 μg/kg): 16.3%
Inhibition rate, 15-min value ([6]; 10 μg/kg): 17.8%
Inhibition rate, 25-min value ([6]; 10 μg/kg): 21.1%
inhibition of intestinal sensitivity to dilatation / alleviation of abdominal pain (in words) ([6]; rat, in vivo): inhibited intestinal sensitivity to dilatation stimulation more strongly than YM-060
LD50 [3]: ≥ 1000 mg/kg
cases of death [3]: no cases of death
Inhibition rate ([4]; 30 μg/kg): 70%
No. of animals with diarrhea/No. of animals used ([4]; 30 μg/kg): 3/10
net fluid transfer in jejunal loop ([7]; 0.1 μg/kg): -0.50 ± 0.07 g/30 min/g tissue weight
net fluid transfer in jejunal loop ([7]; 1.0 μg/kg): -0.80 ± 0.09 g/30 min/g tissue weight
Latency* (time to initial retching) ([8]; 0.3 μg): 114.0 min
Latency** (time to initial vomiting) ([8]; 0.3 μg): 114.0 min
No. of retching ([8]; 0.3 μg): 139.0
No. of vomiting animals/No. of animals used ([8]; 0.3 μg): 2/2
No. of vomitings ([8]; 0.3 μg): 7.0
Latency* (time to initial retching) ([8]; 1.0 μg): > 289.7 min
Latency** (time to initial vomiting) ([8]; 1.0 μg): 293.0 min
No. of retching ([8]; 1.0 μg): 14.7
No. of vomiting animals/No. of animals used ([8]; 1.0 μg): 1/3
No. of vomitings ([8]; 1.0 μg): 1.0
Inhibition rate [9]: 90%
No. of animals with diarrhea/No. of animals used [9]: 1/10

Kb [1, 11]: 0.13 nM
Kb ([1]; read-out: pA2 (converted)): 0.1 nM
Structure (SMILES): COc1cccc(C2CN(C(=O)C3CCc4nc[nH]c4C3)c3ccccc32)c1 (stereo not drawn) [Compound 12, 5-[(3-(3-methoxyphenyl)indolin-1-yl)carbonyl]-4,5,6,7-tetrahydrobenzimidazole hydrochloride]

Structure (SMILES): Cc1nccn1CC1CCc2c(c3ccccc3n2C)C1=O (stereo not drawn) [Ondansetron, 1,2,3,4-tetrahydro-9-methyl-3-[(2-methyl-1H-imidazol-1-yl)methyl]-4H-carbazol-4-one-hydrochloride dihydrate]
suppression of stress-related diarrhea (in words) [10]: suppress stress-related diarrhea

Structure (SMILES): CN1C2CCCC1CC(NC(=O)c1nn(C)c3ccccc13)C2 (stereo not drawn) [Granisetron, N-(endo-9-methyl-9-azabicyclo [3,3,1]nona-3-yl)-l-methyl-indazol-3-carboxamide hydrochloride]
suppression of stress-related diarrhea (in words) [10]: suppress stress-related diarrhea

Structure (SMILES): Cl.O=C(C1CCc2nc[nH]c2C1)N1CC(c2ccccc2)c2ccccc21 (stereo not drawn) [Compound 2, 5-[(3-phenylindolin-1-yl)carbonyl]-4,5,6,7-tetrahydrobenzimidazole hydrochloride]
Kb ([1]; read-out: pA2 (converted)): 1 nM
ED50 ([2]; iv): 0.0003 mg/kg

Kb [1, 11]: 0.05 nM
Kb ([1]; read-out: pA2 (converted)): 0.126 nM
Structure (SMILES): O=C(C1CCc2nc[nH]c2C1)N1CC(c2ccccc2O)c2ccccc21 (stereo not drawn) [Compound 10, 5-[(3-(2-hydroxyphenyl)indolin-1-yl)carbonyl]-4,5,6,7-tetrahydrobenzimidazole hydrochloride]

Kb ([1]; read-out: pA2 (converted)): > 10 nM
Structure (SMILES): CC1CN(C(=O)C2CCc3[nH]cnc3C2)c2ccccc21 (stereo not drawn) [A, reference compound]

Structure (SMILES): NCCc1c[nH]c2ccc(O)cc12 [serotonin, 5-hydroxytryptamine]
acceleration in intestinal secretion ([7]; serotonin administration versus control): 0.19 g/30 min/g tissue weight

Structure (SMILES): CN1[C@@H]2CC[C@H]1C[C@@H](OC(=O)c1c[nH]c3ccccc13)C2 [Tropisetron, endo-8-methyl-8-azabicyclo[3,2,1]octa-3-yl indol-3-ylcarboxylate]
Inhibition rate, 5-min value ([6]; 10 μg/kg): 42.7%
Inhibition rate, 15-min value ([6]; 10 μg/kg): 44.1%
Inhibition rate, 25-min value ([6]; 10 μg/kg): 30.6%

Structure (SMILES): Cl.O=C(C1CCc2nc[nH]c2C1)N1CC(c2ccc(O)cc2)c2ccccc21 (stereo not drawn) [Compound 8, 5-[(3-(4-hydroxyphenyl)indolin-1-yl)carbonyl]-4,5,6,7-tetrahydrobenzimidazole hydrochloride]
Kb ([1]; read-out: pA2 (converted)): 0.1 nM
ED50 ([2]; iv): 0.00013 mg/kg
LD50 [3]: ≥ 1000 mg/kg
cases of death [3]: no cases of death
Inhibition rate ([4]; 30 μg/kg): 70%
No. of animals with diarrhea/No. of animals used ([4]; 30 μg/kg): 2/10
